In ChEMBL document CHEMBL5321272 (J Med Chem, 2023):
Activity calls are given as the source filed them. The rule behind the calls is not given here.

Experiments:
[1] = target: Receptor-type tyrosine-protein kinase FLT3 (Homo sapiens, UniProt P36888, D835Y)
Description: Inhibition of FLT3 D835Y mutant (unknown origin) using peptide substrate TK-S and ATP as substrate incubated for 1 hr by HTRF assay

[2] = Selectivity ratio of IC50 for inhibition of c-KIT (unknown origin) to IC50 for inhibition of FLT3 D835Y mutant (unknown origin)
[3] = target: T1, Serine/threonine-protein kinase Chk1 (Homo sapiens, UniProt O14757)
T1 sequence (O14757 whole entry): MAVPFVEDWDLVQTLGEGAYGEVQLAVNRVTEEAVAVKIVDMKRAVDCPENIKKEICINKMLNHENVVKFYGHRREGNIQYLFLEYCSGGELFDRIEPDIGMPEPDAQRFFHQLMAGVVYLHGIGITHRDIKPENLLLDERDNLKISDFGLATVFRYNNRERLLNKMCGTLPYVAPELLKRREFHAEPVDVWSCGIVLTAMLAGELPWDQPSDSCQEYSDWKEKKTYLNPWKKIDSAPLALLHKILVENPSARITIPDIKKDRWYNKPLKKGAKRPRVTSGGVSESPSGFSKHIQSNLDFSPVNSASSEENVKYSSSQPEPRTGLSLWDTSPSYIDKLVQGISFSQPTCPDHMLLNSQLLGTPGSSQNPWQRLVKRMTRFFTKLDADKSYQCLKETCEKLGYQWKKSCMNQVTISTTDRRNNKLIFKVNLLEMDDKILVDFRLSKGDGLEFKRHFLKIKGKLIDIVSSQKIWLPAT
Description: Inhibition of CHK1 (unknown origin) using peptide substrate S1 and ATP as substrate incubated for 1 hr by HTRF assay

BaF3 [4] = assay: Antiproliferative activity against mouse BaF3 cells harboring FLT3 F691L mutant assessed as reduction in cell viability incubated for 72 hrs by CellTiter 96 Aqueous One Solution Cell Proliferation Assay; format: functional, cell-based
BaF3 [5] = assay: Antiproliferative activity against mouse BaF3 cells harboring FLT3 D835V mutant assessed as reduction in cell viability incubated for 72 hrs by CellTiter 96 Aqueous One Solution Cell Proliferation Assay; format: functional, cell-based
BaF3 [6] = assay: Antiproliferative activity against mouse BaF3 cells harboring FLT3 D835F mutant assessed as reduction in cell viability incubated for 72 hrs by CellTiter 96 Aqueous One Solution Cell Proliferation Assay; format: functional, cell-based
MV4-11 = assay: cells; conditions: Homo sapiens, MV4-11, 72 h
Description: Antiproliferative activity against human MV4-11 cells assessed as reduction in cell viability incubated for 72 hrs by CellTiter 96 Aqueous One Solution Cell Proliferation Assay

[7] = target: Mast/stem cell growth factor receptor Kit (Homo sapiens, UniProt P10721); assay: Inhibition of c-KIT (unknown origin) using peptide substrate TK-S and ATP as substrate incubated for 1 hr by HTRF assay; format: toxicity
Mast/stem cell growth factor receptor Kit, sequence (P10721 whole entry): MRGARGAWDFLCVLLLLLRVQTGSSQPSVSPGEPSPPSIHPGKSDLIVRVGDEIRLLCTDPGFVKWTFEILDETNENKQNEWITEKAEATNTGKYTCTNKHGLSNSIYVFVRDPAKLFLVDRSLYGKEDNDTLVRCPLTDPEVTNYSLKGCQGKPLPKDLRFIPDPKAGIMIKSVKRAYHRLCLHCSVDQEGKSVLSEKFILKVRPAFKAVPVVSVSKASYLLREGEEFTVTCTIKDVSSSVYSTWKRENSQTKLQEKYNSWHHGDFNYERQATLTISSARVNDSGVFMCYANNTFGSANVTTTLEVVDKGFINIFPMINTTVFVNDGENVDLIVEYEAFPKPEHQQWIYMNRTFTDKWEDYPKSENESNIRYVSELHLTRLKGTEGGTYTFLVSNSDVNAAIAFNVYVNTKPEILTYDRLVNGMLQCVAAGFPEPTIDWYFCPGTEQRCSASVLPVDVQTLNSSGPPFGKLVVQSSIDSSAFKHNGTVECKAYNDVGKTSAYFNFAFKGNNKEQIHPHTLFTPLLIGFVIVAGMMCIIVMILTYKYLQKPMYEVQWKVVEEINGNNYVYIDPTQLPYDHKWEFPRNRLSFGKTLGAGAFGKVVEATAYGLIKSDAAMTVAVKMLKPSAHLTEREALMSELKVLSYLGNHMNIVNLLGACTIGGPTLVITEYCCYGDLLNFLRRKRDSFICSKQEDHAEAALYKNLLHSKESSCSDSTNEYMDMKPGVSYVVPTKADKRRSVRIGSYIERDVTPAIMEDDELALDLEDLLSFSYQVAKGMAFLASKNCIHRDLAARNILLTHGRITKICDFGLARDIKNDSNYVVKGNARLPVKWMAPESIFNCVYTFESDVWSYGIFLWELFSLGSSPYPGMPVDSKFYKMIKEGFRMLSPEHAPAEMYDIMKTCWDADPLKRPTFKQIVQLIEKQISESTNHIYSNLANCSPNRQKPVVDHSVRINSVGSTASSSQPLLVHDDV

[8] = AUC (infinity) in ICR mouse at 10 mg/kg, po; format: ADME, organism-based; parameters: dose 10 mg/kg, route po; conditions: in vivo
hERG (KCNH2) = hERG (KCNH2) (Homo sapiens, UniProt Q12809); assay: Inhibition of hERG expressed in HEK293 cells at 20 uM by whole cell patch clamp analysis; format: toxicity, cell-based; conditions: HEK293 cells expressing hERG
hERG (KCNH2), sequence (Q12809 whole entry): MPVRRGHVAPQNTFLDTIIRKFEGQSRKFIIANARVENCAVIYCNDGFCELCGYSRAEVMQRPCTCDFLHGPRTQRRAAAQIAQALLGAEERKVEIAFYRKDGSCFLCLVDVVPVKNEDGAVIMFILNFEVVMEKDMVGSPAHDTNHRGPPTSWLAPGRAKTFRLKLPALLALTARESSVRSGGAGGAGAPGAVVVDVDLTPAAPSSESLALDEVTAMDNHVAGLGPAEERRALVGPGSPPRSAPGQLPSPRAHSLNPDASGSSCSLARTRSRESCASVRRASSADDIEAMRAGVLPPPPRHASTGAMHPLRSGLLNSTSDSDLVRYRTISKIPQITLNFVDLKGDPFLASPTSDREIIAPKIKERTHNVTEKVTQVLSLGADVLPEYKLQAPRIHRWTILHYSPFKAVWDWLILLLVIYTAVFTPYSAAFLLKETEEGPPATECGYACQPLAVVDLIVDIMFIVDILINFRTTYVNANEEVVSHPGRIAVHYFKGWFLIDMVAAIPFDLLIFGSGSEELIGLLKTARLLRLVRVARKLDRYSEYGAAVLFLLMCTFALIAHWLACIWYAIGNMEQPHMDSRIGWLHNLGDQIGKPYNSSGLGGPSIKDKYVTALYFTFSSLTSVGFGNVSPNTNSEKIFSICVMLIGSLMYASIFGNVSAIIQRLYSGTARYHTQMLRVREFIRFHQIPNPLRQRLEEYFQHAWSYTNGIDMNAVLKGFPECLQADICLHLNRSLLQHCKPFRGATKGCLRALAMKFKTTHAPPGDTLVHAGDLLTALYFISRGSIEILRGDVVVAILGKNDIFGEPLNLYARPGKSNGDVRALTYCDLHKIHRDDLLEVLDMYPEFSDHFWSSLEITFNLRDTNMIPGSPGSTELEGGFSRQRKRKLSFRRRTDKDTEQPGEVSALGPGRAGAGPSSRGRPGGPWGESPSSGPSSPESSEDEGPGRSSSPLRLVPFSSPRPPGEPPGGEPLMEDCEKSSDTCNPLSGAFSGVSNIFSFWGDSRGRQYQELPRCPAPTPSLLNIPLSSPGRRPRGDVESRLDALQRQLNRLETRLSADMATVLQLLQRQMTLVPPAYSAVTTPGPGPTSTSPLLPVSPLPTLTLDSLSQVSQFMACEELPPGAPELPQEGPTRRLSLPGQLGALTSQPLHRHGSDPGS

[9] = MRT (infinity) in ICR mouse at 10 mg/kg, po; format: ADME, organism-based; conditions: in vivo
[10] = Half life in ICR mouse at 10 mg/kg, po; format: ADME, organism-based; conditions: in vivo
[11] = AUC (last) in ICR mouse at 10 mg/kg, po; format: ADME, organism-based; parameters: dose 10 mg/kg, route po; conditions: in vivo
[12] = Tmax in ICR mouse at 10 mg/kg, po; format: ADME, organism-based; conditions: in vivo
[13] = Cmax in ICR mouse at 10 mg/kg, po; format: ADME, organism-based; parameters: dose 10 mg/kg, route po; conditions: in vivo

Structure (SMILES) | IC50 [1] | Ratio IC50 [2] | IC50 [3] | Activity (BaF3 [4]) | Activity (BaF3 [5]) | Activity (BaF3 [6]) | IC50 (MV4-11) | IC50 [7] | AUC(0-inf) [8] | inhibition at 20 µM (hERG (KCNH2)) | MRT inf [9] | half-life [10] | AUC(0-t) [11] | Tmax [12] | Cmax [13]
N[C@H]1CC[C@@H](Nc2nc(Nc3ccc4c(c3)CN(C(=O)CO)C4)ncc2C(F)(F)F)CC1 | 1.06 nM | 1870 | 7.6 nM | Active | Active | Active | 0.14 nM | 1990 nM |  |  |  |  |  |  | 
CC(C)(O)C(=O)N1CCc2ccc(Nc3ncc(C(F)(F)F)c(N[C@H]4CC[C@@H](N)CC4)n3)cc2C1 | 2.21 nM | 4030 | 14 nM | Active | Active | Active | 0.93 nM | 8910 nM | 57.5 ng·h/mL | 28.1% | 13.9 h | 9.08 h | 18.6 ng·h/mL | 0.25 h | 4.06 ng/mL
C[C@H](O)C(=O)N1CCc2cc(Nc3ncc(C(F)(F)F)c(N[C@H]4CC[C@@H](N)CC4)n3)ccc2C1 | 0.92 nM | 766 | 5.1 nM |  |  |  | 0.28 nM | 704 nM |  | 13.6% |  |  |  |  | 
CC(C)(O)CC(=O)N1Cc2ccc(Nc3ncc(C(F)(F)F)c(N[C@H]4CC[C@@H](N)CC4)n3)cc2C1 | 1.12 nM | 2200 | 12.5 nM | Active | Active | Active | 0.48 nM | 2460 nM | 104 ng·h/mL | 19.3% | 1.67 h | 0.81 h | 99.6 ng·h/mL | 1 h | 42.5 ng/mL
CC(C)(O)C(=O)N1CCc2cc(Nc3ncc(C(F)(F)F)c(N[C@H]4CC[C@@H](N)CC4)n3)ccc2C1 | 1.53 nM | 589 | 8.6 nM |  |  |  | 0.38 nM | 902 nM |  | 17.7% |  |  |  |  | 
CC(=O)N1CCc2ccc(Nc3ncc(C(F)(F)F)c(N[C@H]4CC[C@@H](N)CC4)n3)cc2C1 | 1.24 nM | 3720 | 7.61 nM | Active | Active | Active | 0.35 nM | 4620 nM |  | 43.4% |  |  |  |  | 
CN1CCc2cc(Nc3ncc(C(F)(F)F)c(N[C@H]4CC[C@@H](N)CC4)n3)ccc2C1=O | 1.15 nM | 4150 | 11.7 nM | Active | Active | Active | 1.2 nM | 4770 nM |  | 40.9% |  |  |  |  | 
C[C@@H](O)C(=O)N1CCc2cc(Nc3ncc(C(F)(F)F)c(N[C@H]4CC[C@@H](N)CC4)n3)ccc2C1 | 1.25 nM | 1440 | 10.8 nM | Active | Active | Active | 0.21 nM | 1800 nM | 226 ng·h/mL | 14.6% | 2.05 h | 0.96 h | 220 ng·h/mL | 2 h | 80.1 ng/mL
CC(C)(O)CC(=O)N1CCc2cc(Nc3ncc(C(F)(F)F)c(N[C@H]4CC[C@@H](N)CC4)n3)ccc21 | 2.88 nM | 1760 | 19 nM | Active | Active | Active | 2.21 nM | 5060 nM |  |  |  |  |  |  | 
CC(=O)N1CCc2cc(Nc3ncc(C(F)(F)F)c(N[C@H]4CC[C@@H](N)CC4)n3)ccc2C1 | 0.87 nM | 1240 | 7.6 nM | Active | Active | Active | 0.07 nM | 1080 nM | 1100 ng·h/mL | 33.2% | 2.22 h | 0.81 h | 1080 ng·h/mL | 2 h | 555 ng/mL
CC(=O)N1Cc2ccc(Nc3ncc(C(F)(F)F)c(N[C@H]4CC[C@@H](N)CC4)n3)cc2C1 | 1.63 nM | 1370 | 13.1 nM | Active | Active | Active | 0.34 nM | 2240 nM | 103 ng·h/mL | 28.3% | 2.29 h | 1.21 h | 97.8 ng·h/mL | 2 h | 32 ng/mL
Cn1ncc2cc(Nc3ncc(C(F)(F)F)c(N[C@H]4CC[C@@H](N)CC4)n3)ccc2c1=O | 4.22 nM |  | 58.5 nM |  |  |  | 1.36 nM |  |  | 81.9% |  |  |  |  | 
CC(C)(O)CC(=O)N1CCc2ccc(Nc3ncc(C(F)(F)F)c(N[C@H]4CC[C@@H](N)CC4)n3)cc2C1 | 2.11 nM | 1820 | 9.9 nM | Active | Active | Active | 0.44 nM | 3840 nM |  | 43.9% |  |  |  |  | 
N[C@H]1CC[C@@H](Nc2nc(Nc3ccc4c(c3)CCN(C(=O)CO)C4)ncc2C(F)(F)F)CC1 | 0.46 nM | 4420 | 17.6 nM | Active | Active | Active | 0.28 nM | 2030 nM | 411 ng·h/mL | 10.4% | 3.43 h | 2.3 h | 340 ng·h/mL | 1 h | 162 ng/mL
CC(=O)N1CCc2cc(Nc3ncc(C(F)(F)F)c(N[C@H]4CC[C@@H](N)CC4)n3)ccc21 | 0.98 nM | 4870 | 10.7 nM | Active | Active | Active | 2.07 nM | 4780 nM |  |  |  |  |  |  | 
